Results on one compound are retold here after PMC7181047, “Flame-Made Calcium Phosphate Nanoparticles with High Drug Loading for Delivery of Biologics” (Molecules, 2020).

Structures are written as SMILES.

Series [1] deals with T1, Proteinase K (Parengyodontium album, UniProt P06873).
T1 construct: purchased Qiagen, Hilden, Germany
As to the kind of experiment: Proteinase K degradation assay (SDS-PAGE). It counts as in vitro ADME. The conditions noted are these: 0.5 µg LL-37, 20 ng Proteinase K, 20 mM Tris-HCl pH 8.0, 37 °C, up to 240 min, at least three repetitions. As for the experimental part: A total of 0.5 µg LL-37, either loaded on nanoparticles or not, was subjected to Proteinase K degradation assay. Input samples were taken without Proteinase K added, as a positive control and is considered to be “100%” when calculating protein amounts. LL-37 was incubated in 20 mM Tris-HCl, pH 8.0 with a total of 20 ng Proteinase K (Qiagen, Hilden, Germany) added to the reaction. Samples were incubated at 37 °C until given timepoints where the reaction was stopped by the addition of SDS loading buffer (at a final concentration of 50 mM Tris-HCl pH 6.8, 2% SDS, 10% glycerol, 1% β-mercaptoethanol, 12.5 mM EDTA and 0.02% Bromophenol blue) and samples were then immediately boiled for 10 min at 98 °C.
Samples were loaded onto a NuPAGE 4%–12% Bis-Tris gel (Invitrogen, Carlsbad, CA, USA) and run in MES-buffer (Invitrogen) at 40 mA/gel. Since LL-37 is a small peptide, samples were run only halfway through the gel. The gels where then washed in Mill-Q water 3 times, 10 min before immersion in Imperial Protein Stain (Thermo Scientific) for 1 h. After that Mill-Q water was used to destain the gels before image acquisition on GelDoc XRS+ (Bio-Rad, Hercules, CA, USA). Bands were quantified using Image Studio Lite v. 5.2 (LI-COR Biosciences, Lincoln, NE, USA).

Series [2] addresses T1, Proteinase K. Set-up: method as in PMID 10417311. The conditions noted are these: after 2 h; cited from earlier work.
Experimental: In order to assess the enzymatic degradation of LL-37 and the protective potential from the CaPS nanocarriers, a degradation assay utilizing Proteinase K was performed (Sodium Dodecyl Sulfate–Polyacrylamide Gel Electrophoresis, SDS-PAGE).

T1 sequence (P06873 106-384): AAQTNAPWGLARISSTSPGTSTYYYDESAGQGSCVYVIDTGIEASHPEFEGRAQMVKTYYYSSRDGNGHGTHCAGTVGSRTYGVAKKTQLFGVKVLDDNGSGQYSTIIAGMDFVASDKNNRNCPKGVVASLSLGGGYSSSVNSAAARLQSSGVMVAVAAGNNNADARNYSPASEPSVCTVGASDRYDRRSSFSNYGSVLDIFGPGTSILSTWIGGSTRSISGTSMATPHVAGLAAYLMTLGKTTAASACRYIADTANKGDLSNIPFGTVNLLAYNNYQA

Consider `CC[C@H](C)[C@H](NC(=O)[C@H](CCCCN)NC(=O)[C@H](CCC(=O)O)NC(=O)[C@H](CCCCN)NC(=O)[C@H](CO)NC(=O)[C@H](CCCCN)NC(=O)[C@H](CCCNC(=N)N)NC(=O)[C@H](Cc1ccccc1)NC(=O)[C@H](Cc1ccccc1)NC(=O)[C@H](CC(=O)O)NC(=O)CNC(=O)[C@H](CC(C)C)NC(=O)[C@@H](N)CC(C)C)C(=O)NCC(=O)N[C@@H](CCCCN)C(=O)N[C@@H](CCC(=O)O)C(=O)N[C@@H](Cc1ccccc1)C(=O)N[C@@H](CCCCN)C(=O)N[C@@H](CCCNC(=N)N)C(=O)N[C@H](C(=O)N[C@H](C(=O)N[C@@H](CCC(N)=O)C(=O)N[C@@H](CCCNC(=N)N)C(=O)N[C@H](C(=O)N[C@@H](CCCCN)C(=O)N[C@@H](CC(=O)O)C(=O)N[C@@H](Cc1ccccc1)C(=O)N[C@@H](CC(C)C)C(=O)N[C@@H](CCCNC(=N)N)C(=O)N[C@@H](CC(N)=O)C(=O)N[C@@H](CC(C)C)C(=O)N[C@H](C(=O)N1CCC[C@H]1C(=O)N[C@@H](CCCNC(=N)N)C(=O)N[C@H](C(=O)N[C@@H](CCC(=O)O)C(=O)N[C@@H](CO)C(=O)O)[C@@H](C)O)C(C)C)[C@@H](C)CC)C(C)C)[C@@H](C)CC` [LL-37], for which the “incubation time after which the LL-37 band (4.5 kDa) starts fading” value on Proteinase K [1] is 20 min. Further, the uncleaved peptide at Proteinase K [2] is on record as ~ 5%.
